Laboratory results published in ChEMBL document CHEMBL1201862, “PubChem BioAssay data set” (2004).
Calls of active or inactive are those of the source. No rule for the calls is given here.

Biological target: T1, Exodeoxyribonuclease V (Escherichia coli (strain K12), UniProt P04993+P07648+P08394)
T1 sequence (P04993 whole entry): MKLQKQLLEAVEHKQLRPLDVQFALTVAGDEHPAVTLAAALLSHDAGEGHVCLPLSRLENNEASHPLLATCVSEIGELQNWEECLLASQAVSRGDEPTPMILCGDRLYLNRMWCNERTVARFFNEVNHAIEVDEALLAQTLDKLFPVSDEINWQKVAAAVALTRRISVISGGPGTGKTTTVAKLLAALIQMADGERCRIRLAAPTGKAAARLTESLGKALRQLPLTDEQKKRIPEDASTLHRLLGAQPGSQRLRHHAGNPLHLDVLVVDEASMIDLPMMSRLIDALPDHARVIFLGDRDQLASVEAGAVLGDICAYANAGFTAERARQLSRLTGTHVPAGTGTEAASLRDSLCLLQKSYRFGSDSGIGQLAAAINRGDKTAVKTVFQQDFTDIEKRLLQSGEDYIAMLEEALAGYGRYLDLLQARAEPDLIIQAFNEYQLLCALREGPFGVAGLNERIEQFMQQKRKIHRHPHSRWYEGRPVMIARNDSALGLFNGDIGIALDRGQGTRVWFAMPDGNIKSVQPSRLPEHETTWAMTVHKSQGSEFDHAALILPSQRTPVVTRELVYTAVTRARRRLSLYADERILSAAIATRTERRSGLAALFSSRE
T1 sequence (P07648 whole entry): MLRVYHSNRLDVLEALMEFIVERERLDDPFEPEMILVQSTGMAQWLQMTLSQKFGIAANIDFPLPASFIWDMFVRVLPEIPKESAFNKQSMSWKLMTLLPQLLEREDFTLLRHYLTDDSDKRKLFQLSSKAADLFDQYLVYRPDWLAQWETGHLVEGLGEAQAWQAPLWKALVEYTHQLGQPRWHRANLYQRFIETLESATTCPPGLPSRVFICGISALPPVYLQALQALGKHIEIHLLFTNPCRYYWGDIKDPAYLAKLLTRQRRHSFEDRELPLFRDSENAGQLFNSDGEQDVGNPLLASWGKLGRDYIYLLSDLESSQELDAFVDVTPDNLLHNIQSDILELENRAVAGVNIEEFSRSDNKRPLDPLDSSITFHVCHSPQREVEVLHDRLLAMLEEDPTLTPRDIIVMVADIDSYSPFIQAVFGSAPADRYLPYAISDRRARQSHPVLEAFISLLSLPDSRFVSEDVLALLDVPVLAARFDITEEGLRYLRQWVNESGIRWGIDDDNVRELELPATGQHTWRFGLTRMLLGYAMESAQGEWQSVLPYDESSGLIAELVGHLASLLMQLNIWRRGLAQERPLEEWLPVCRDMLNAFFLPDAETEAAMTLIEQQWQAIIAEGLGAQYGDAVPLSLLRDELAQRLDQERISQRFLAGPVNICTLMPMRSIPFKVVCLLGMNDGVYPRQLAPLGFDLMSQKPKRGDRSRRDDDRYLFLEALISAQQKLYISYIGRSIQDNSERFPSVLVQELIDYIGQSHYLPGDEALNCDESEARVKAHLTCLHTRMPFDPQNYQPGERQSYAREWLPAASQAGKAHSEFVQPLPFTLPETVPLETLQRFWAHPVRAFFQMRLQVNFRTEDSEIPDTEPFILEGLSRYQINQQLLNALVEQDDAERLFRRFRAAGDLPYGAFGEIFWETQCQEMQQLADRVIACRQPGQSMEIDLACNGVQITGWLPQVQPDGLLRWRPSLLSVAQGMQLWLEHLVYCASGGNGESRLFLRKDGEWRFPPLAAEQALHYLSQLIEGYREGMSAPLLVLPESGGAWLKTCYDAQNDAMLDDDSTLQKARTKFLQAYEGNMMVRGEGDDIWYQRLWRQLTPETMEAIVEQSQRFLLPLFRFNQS
T1 sequence (P08394 whole entry): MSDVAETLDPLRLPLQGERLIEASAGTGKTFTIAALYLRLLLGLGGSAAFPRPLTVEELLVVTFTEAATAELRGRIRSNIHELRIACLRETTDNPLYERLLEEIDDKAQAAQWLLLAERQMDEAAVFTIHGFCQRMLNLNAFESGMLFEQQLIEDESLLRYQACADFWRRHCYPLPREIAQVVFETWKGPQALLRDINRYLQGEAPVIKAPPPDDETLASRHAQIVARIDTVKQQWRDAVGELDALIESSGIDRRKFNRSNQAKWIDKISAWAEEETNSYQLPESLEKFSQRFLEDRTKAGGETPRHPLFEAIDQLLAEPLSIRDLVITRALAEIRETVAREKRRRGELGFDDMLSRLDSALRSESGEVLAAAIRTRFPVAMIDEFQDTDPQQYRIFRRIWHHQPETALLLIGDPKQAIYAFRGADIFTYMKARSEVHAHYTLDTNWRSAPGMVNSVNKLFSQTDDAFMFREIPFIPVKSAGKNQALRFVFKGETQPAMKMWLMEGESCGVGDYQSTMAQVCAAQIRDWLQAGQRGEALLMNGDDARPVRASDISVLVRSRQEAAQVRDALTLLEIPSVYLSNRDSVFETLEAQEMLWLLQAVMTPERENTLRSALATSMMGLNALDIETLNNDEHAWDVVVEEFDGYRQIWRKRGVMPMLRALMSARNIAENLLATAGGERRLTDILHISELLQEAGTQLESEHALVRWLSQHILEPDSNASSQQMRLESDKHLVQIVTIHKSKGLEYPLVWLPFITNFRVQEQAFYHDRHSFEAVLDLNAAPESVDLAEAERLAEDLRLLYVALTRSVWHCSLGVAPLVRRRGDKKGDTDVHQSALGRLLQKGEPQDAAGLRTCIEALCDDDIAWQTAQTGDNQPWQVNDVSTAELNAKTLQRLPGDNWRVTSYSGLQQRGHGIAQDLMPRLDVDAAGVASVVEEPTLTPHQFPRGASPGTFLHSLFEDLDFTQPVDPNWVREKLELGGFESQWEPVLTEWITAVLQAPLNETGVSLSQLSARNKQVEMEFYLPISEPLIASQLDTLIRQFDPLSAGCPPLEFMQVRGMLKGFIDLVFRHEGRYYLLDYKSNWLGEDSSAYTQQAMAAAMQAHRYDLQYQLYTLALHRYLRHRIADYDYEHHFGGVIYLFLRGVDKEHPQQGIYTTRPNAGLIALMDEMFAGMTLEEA
Test: RecBCD inhibition via phage-restricted bacterial growth – absorbance, V66 E. coli, mutant T4 phage, counter-screen for AddAB inhibitor project, dose response (AID 492957)
Assay type: functional, cell-based, Escherichia coli str. K-12 substr. MG1655

Row | Structure (SMILES) | IC50
1 | O=C(Nc1cccc(NC(=O)c2ccccc2Cl)c1)c1ccc([N+](=O)[O-])o1 | > 119 µM (inactive)
2 | Cn1c(O)c(/C=N/NC(=O)c2cc3ccccc3cc2O)c2ccccc21 | > 119 µM (inactive)
